Legend:
[1] = biological target: T1, LZK (Homo sapiens, UniProt O43283); experiment: LZK biochemical assay (TR-FRET, MKK7 phosphorylation); details: LZK catalytic domain, MKK7 substrate, 15 μM ATP
T1 construct: 10 nM LZK, catalytic domain, Carna Biosiences in assay buffer; purchased Carna Biosciences ('Carna Biosiences' [sic])
T1 sequence (O43283 168-409 limits assumed): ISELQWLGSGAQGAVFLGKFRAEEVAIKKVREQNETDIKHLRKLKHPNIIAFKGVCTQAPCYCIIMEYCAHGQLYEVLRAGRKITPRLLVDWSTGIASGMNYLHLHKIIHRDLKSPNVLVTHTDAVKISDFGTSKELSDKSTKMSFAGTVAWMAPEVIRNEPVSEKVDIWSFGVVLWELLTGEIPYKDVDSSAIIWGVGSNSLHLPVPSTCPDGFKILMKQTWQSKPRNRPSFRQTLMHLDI

[2] = biological target: T2, DLK (Homo sapiens, UniProt Q12852); experiment: DLK biochemical assay (TR-FRET, MKK7 phosphorylation); details: DLK catalytic domain, MKK7 substrate, 60 μM ATP
T2 construct: 10 nM DLK, catalytic domain, Carna Biosiences; purchased Carna Biosciences ('Carna Biosiences' [sic])
T2 sequence (Q12852 125-366 limits assumed): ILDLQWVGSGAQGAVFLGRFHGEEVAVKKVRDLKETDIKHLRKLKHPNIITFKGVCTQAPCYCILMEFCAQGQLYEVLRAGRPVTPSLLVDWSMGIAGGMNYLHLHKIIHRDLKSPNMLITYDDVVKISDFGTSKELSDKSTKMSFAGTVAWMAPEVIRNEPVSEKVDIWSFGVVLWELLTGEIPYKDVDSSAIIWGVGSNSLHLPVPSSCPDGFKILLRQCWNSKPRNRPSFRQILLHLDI
Procedure, shortened: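 TR-FRET read-out (ratio of 665 nm acceptor to Eu donor channel) tracks MKK7 T275/S277 phosphorylation by DLK, using Eu-labelled anti-phospho-MKK7 and XL665-labelled anti-His on His-MKK7. Reactions were stopped and detected in pH 7.5 Tris buffer containing 100 mM EDTA, 100 mM NaCl, 200 mM KF and 0.01% Tween 20.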

Row | Compound | IC50 [1] [nM] | IC50 [2] [nM]
1 | CC[C@H](C)NC(=O)c1cc(-c2cnn(C(c3ccc(C(F)(F)F)nc3)C3CCOCC3)c2)cc2nc(N)nn12 (mixture of isomers) [Example I-110, 2-Amino-N-[(2S)-butan-2-yl]-7-(1-{tetrahydro-2H-pyran-4-yl[6-(trifluoromethyl)pyridin-3-yl]methyl}-1H-pyrazol-4-yl)[1,2,4]triazolo[1,5-a]pyridine-5-carboxamide] | 2.3 | 1.6
2 | CC[C@H](C)NC(=O)c1cc(-c2cnn([C@@H](CC)c3ccc(C(F)F)nc3)c2)cc2nc(N)nn12 (single isomer, unassigned) [Example I-94] | 1.9 | 1
3 | CC[C@H](C)NC(=O)c1cc(-c2cnn(C(c3ccccc3)C3CCOCC3)c2)cc2nc(N)nn12 (mixture of isomers) [Example I-51, 2-Amino-N-[(2S)-butan-2-yl]-7-{1-[phenyl(tetrahydro-2H-pyran-4-yl)methyl]-1H-pyrazol-4-yl}[1,2,4]triazolo[1,5-a]pyridine-5-carboxamide] | 8.7 | 1.8
4 | CC[C@H](C)NC(=O)c1cc(-c2cnn(C(c3ccccc3)C3(C)CC3)c2)cn2nc(N)nc12 (single isomer, unassigned) [Example I-29] | 170 | 2.3
5 | CCC(c1ccc(OCC(F)(F)F)nc1)n1cc(-c2cc(C(=O)N[C@@H](C)CC)n3nc(N)nc3c2)cn1 (single isomer, unassigned) [Example I-114] | 130 | 49
6 | CC[C@H](C)NC(=O)c1cc(-c2cnn([C@H](c3ccc(F)cc3)C(C)C)c2)cn2nc(N)nc12 (single isomer, unassigned) [Example I-45] | 32 | 1.3
7 | CC[C@H](C)NC(=O)c1cc(-c2cnn(C(c3ccc(C(F)F)nc3)C3CC3)c2)cc2nc(N)nn12 (single isomer, unassigned) [Example I-99] | 14 | 31
8 | CC[C@H](C)NC(=O)c1cc(-c2cnn(C3CCOc4ccccc43)c2)cc2nc(N)nn12 (single isomer, unassigned) [Example I-17] | 4.7 | 22
9 | CCC(c1ccc(F)cn1)n1cc(-c2cc(C(=O)N[C@@H](C)CC)c3nc(N)nn3c2)cn1 (single isomer, unassigned) [Example I-56] | 19 | 2.7
10 | CC[C@H](C)NC(=O)c1cc(-c2cnn(C(c3ccc(C(F)(F)F)nc3)C3CC3)c2)cc2nc(N)nn12 (mixture of isomers) [Example I-107, 2-Amino-N-[(2S)-butan-2-yl]-7-(1-{cyclopropyl[6-(trifluoromethyl)pyridin-3-yl]methyl}-1H-pyrazol-4-yl)[1,2,4]triazolo[1,5-a]pyridine-5-carboxamide] | 3.5 | 1.7
11 | CCC(c1ccc(C(F)(F)F)nc1)n1cc(-c2cc(C(=O)N[C@@H](C)CC)n3nc(N)nc3c2)cn1 (mixture of isomers) [Example I-101, 2-Amino-N-[(2S)-butan-2-yl]-7-(1-{1-[6-(trifluoromethyl)pyridin-3-yl]propyl}-1H-pyrazol-4-yl)[1,2,4]triazolo[1,5-a]pyridine-5-carboxamide] | 2.8 | 1.2
12 | CC[C@H](C)NC(=O)c1cc(-c2cnn(C3CCc4ccccc43)c2)cn2nc(N)nc12 (single isomer, unassigned) [Example I-14] | 4.7 | 12
13 | CC[C@H](C)NC(=O)c1cc(-c2cnn([C@@H](CC)c3ccc(C(F)(F)F)nc3)c2)cn2nc(N)nc12 (single isomer, unassigned) [Example I-71] | 4.5 | 1.4
14 | CCC(c1cncc(Cl)c1)n1cc(-c2cc(C(=O)N[C@@H](C)CC)c3nc(N)nn3c2)cn1 (mixture of isomers) [Example I-58, 2-Amino-N-[(2S)-butan-2-yl]-6-{1-[1-(5-chloropyridin-3-yl)propyl]-1H-pyrazol-4-yl}[1,2,4]triazolo[1,5-a]pyridine-8-carboxamide] | 16 | 1.6
15 | CCC(c1ccc(C(F)F)nc1)n1cc(-c2cc(C(=O)N[C@@H](C)CC)c3nc(N)nn3c2)cn1 (single isomer, unassigned) [Example I-65] | 33 | 25

Other lines, results leading:

Row | IC50 [1] [nM] | IC50 [2] [nM] | Compound
16 | 355 | 26 | CC(CF)NC(=O)c1cc(-c2cnn(C(c3ccccc3)C(C)C)c2)cn2nc(N)nc12 (single isomer, unassigned) [Example I-141, 2-Amino-N-(1-fluoropropan-2-yl)-6-[1-(2-methyl-1-phenylpropyl)-1H-pyrazol-4-yl][1,2,4]triazolo[1,5-a]pyridine-8-carboxamide]
17 | 52 | 17 | CC[C@H](C)NC(=O)c1cc(-c2cnn(C(c3ccnc(OC)c3)C(C)C)c2)cc2nc(N)nn12 (single isomer, unassigned) [Example I-127]
18 | 68 | 8.2 | CC[C@H](C)NC(=O)c1cc(-c2cnn(C(c3ccc(OCC(F)(F)F)nc3)C(C)C)c2)cc2nc(N)nn12 (mixture of isomers) [Example I-116, 2-Amino-N-[(2S)-butan-2-yl]-7-(1-{2-methyl-1-[6-(2,2,2-trifluoroethoxy)pyridin-3-yl]propyl}-1H-pyrazol-4-yl)[1,2,4]triazolo[1,5-a]pyridine-5-carboxamide]
19 | 6.1 | 1.6 | CC(C)C(c1ccc(C(F)(F)F)nc1)n1cc(-c2cc(C(=O)N[C@H]3CCOC3)n3nc(N)nc3c2)cn1 (mixture of isomers) [Example I-180, 2-Amino-7-(1-{2-methyl-1-[6-(trifluoromethyl)pyridin-3-yl]propyl}-1H-pyrazol-4-yl)-N-[(3S)-tetrahydrofuran-3-yl][1,2,4]triazolo[1,5-a]pyridine-5-carboxamide]
20 | 550 | 190 | COC[C@H](C)NC(=O)c1cc(-c2cnn(Cc3ccc(F)cc3)c2)cn2nc(N)nc12 (single isomer, unassigned) [Example I-135, 2-Amino-6-{1-[(4-fluorophenyl)methyl]-1H-pyrazol-4-yl}-N-[(25)-1-methoxypropan-2-yl][1,2,4]triazolo[1,5-a]pyridine-8-carboxamide]
21 | 3.9 | 0.7 | CCC(c1ccc(C(F)(F)F)nc1)n1cc(-c2cc(C(=O)N[C@@H](C)CO)c3nc(N)nn3c2)cn1 (single isomer, unassigned) [Example I-152]
22 | 210 | 23 | Nc1nc2c(C(=O)NC3CNC(=O)C3)cc(-c3cnn(Cc4ccc(F)cc4)c3)cn2n1 (racemic) [Example I-136, 2-Amino-6-[1-(4-fluorobenzyl)-1H-pyrazol-4-yl]-N-(5-oxopyrrolidin-3-yl)[1,2,4]triazolo[1,5-a]pyridine-8-carboxamide]
23 | 76 | 4 | CC(C)C(c1cncc(Cl)c1)n1cc(-c2cc(C(=O)NC(C)(C)CO)c3nc(N)nn3c2)cn1 (racemic) [Example I-172, 2-Amino-6-{1-[1-(5-chloropyridin-3-yl)-2-methylpropyl]-1H-pyrazol-4-yl}-N-(1-hydroxy-2-methylpropan-2-yl)[1,2,4]triazolo[1,5-a]pyridine-8-carboxamide]

— patent publication US20230086702A1, “SUBSTITUTED 2-AMINO-PYRAZOLYL-[1,2,4]TRIAZOLO[1,5A]PYRIDINE DERIVATIVES AND USE THEREOF” (The Johns Hopkins University, priority 2019, published 2023)
